According to ChEMBL document CHEMBL1806453, “Conjugate of neamine and 2-deoxystreptamine mimic connected by an amide bond” (Bioorg Med Chem Lett, 2011):

Tests used:
Assay type in all cases: nucleic-acid assay
[1] = target: Nucleic Acid; assay: Binding affinity to 2-AP labeled mutant RNA5 by fluorescence binding assay
[2] = target: Nucleic Acid; assay: Binding affinity to 2-AP labeled mutant RNA3 by fluorescence binding assay
[3] = target: Nucleic Acid; assay: Binding affinity to 2-AP labeled RNA1 by fluorescence binding assay
[4] = target: Nucleic Acid; assay: Binding affinity to 2-AP labeled mutant RNA7 by fluorescence binding assay
[5] = target: Nucleic Acid; assay: Binding affinity to 2-AP labeled mutant RNA4 by fluorescence binding assay
[6] = target: Nucleic Acid; assay: Binding affinity to 2-AP labeled mutant RNA2 by fluorescence binding assay
[7] = target: Nucleic Acid; assay: Binding affinity to 2-AP labeled mutant RNA6 by fluorescence binding assay
[8] = target: Nucleic Acid; assay: Binding affinity to 2-AP labeled mutant RNA8 by fluorescence binding assay

Row | Kd [1] | Kd [2] | Kd [3] | Kd [4] | Kd [5] | Kd [6] | Kd [7] | Kd [8] | SMILES
1 | 1100 nM | 1100 nM | 1500 nM | 1100 nM |  |  |  |  | NC[C@@H]1O[C@H](O[C@H]2[C@@H](O)[C@H](O[C@@H]3[C@@H](O)[C@H](N)C[C@H](N)[C@H]3O[C@H]3O[C@H](CN)[C@@H](O)[C@H](O)[C@H]3N)O[C@@H]2CO)[C@H](N)[C@@H](O)[C@@H]1O [FRAMYCETIN]
2 | 500 nM | 2200 nM | 2200 nM | 2900 nM | 1700 nM | 1500 nM | 1400 nM | 1400 nM | CO[C@@H]1C[C@H](NC(=O)[C@@H]2C[C@H](O[C@H]3O[C@H](CN)[C@@H](O)[C@H](O)[C@H]3N)[C@@H](N)C[C@H]2N)[C@@H](N)C[C@H]1N
